# Experimental data reported in patent publication US7968534B2, “Sulfonamide derivatives, preparation thereof and use thereof as antagonists of orexin 2 receptors” (Sanofi-Aventis, priority 2006, dated 2011).
# Where a name gives a salt, the structure may show the parent alone. Read-outs that look alike come from different tables or passages of the source.
# Columns and labels:
# human orexin 2 receptors = target: T1, human orexin 2 receptors (Homo sapiens, UniProt O43614); assay: in vitro binding test: displacement of radioiodinated orexin A, membranes of CHO cells; conditions: read-out: IC50 OX 2
# T1 construct: expressed in transfected cells; host or cells: CHO cells (membranes)
# T1 sequence (O43614 1-444): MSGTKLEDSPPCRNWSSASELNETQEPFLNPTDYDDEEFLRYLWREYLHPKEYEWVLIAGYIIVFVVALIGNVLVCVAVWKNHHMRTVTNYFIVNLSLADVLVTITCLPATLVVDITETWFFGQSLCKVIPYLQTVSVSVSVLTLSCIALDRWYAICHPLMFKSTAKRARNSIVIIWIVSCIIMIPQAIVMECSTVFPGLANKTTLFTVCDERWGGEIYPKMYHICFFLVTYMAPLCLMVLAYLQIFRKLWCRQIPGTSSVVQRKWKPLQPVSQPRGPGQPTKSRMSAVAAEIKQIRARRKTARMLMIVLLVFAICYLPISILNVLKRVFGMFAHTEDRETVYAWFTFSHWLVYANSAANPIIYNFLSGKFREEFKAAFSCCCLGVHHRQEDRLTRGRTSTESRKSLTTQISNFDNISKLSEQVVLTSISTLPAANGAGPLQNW
# Method: (§1) They were in particular tested for their effects. […] This method consists in studying the displacement of radioiodinated orexin A attached to the human orexin 2 receptors expressed in CHO cells. The test is performed on membranes in a 50 mM Hepes incubation buffer containing 1 mM MgCl2, 25 mM CaCl2, 0.025% NaN3, 1% bovine serum albumin (BSA) and 100 pM of ligand for 30 minutes at 25° C. The reaction is stopped by filtration and washing on a Whatman GF/C filter. The nonspecific binding is measured in the presence of 10^−6M human orexin B. The IC50 values (concentration inhibiting 50% of the binding of radioiodinated orexin A to its receptors) are low, less than 300 nM, in particular less than 100 nM and more particularly less than 30 nM.
# human orexin 1 receptors = target: T2, human orexin 1 receptors (Homo sapiens, UniProt O43613); assay: in vitro binding test, same technique, radioiodinated orexin A, membrane preparation of CHO cells; conditions: Table 2, read-out: IC50 OX 1
# T2 construct: expressed in transfected cells; host or cells: CHO cells (membrane preparation)
# T2 sequence (O43613 1-425): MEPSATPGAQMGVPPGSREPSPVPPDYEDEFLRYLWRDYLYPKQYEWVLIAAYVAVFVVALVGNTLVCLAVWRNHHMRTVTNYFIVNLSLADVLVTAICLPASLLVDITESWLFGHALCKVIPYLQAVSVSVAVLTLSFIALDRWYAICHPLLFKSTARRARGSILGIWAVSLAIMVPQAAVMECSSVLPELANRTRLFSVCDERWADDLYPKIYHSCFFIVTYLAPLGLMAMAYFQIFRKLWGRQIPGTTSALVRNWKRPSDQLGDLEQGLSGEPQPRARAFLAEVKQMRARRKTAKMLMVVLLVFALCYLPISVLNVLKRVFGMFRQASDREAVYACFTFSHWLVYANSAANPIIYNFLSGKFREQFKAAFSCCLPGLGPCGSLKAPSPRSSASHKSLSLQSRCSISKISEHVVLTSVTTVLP
# Method: as §1
# The affinity of the compounds according to the invention for the orexin 1 receptors was also studied in an in vitro binding test according to the same technique using radioiodinated orexin A as ligand in a membrane preparation of CHO cells expressing the human orexin 1 receptors. The compounds according to the invention have little or no affinity for the orexin 1 receptors.
# [1] = Table 2, in vitro binding test, 100 pM radioiodinated orexin A, 30 minutes at 25° C.
Structure (SMILES),"IC50 (human orexin 2 receptors; Table 1, assay not given) [nM]",IC50 (human orexin 2 receptors; [1]) [nM],IC50 (human orexin 1 receptors) [nM]
"COc1ccc(S(=O)(=O)N(c2c(Cc3c(F)cccc3F)cccc2OC)[C@H]2CCNC2)cc1OC (atropisomer, axis not shown) [Compound 6, N-[2-(2,6-difluorobenzyl)-6-methoxyphenyl]-3,4-dimethoxy-N-[(3S)-pyrrolidin-3-yl]benzenesulfonamide hydrochloride]",9.1,–,–
"COc1ccc(S(=O)(=O)N(c2c(Cc3c(F)cccc3F)cccc2OC)[C@H]2CCNC2)cc1OC (atropisomer, axis not shown) [Compound 7, N-[2-(2,6-difluorobenzyl)-6-methoxyphenyl]-3,4-dimethoxy-N-[(3S)-pyrrolidin-3-yl]benzenesulfonamide hydrochloride]",–,9,103
"COc1ccc(S(=O)(=O)N(c2ccc(Cl)cc2Cc2c(F)cccc2F)[C@H]2CCNC2)cc1OC [Compound 1, N-[4-chloro-2-(2,6-difluorobenzyl)phenyl]-3,4-dimethoxy-N-[(3S)-pyrrolidin-3-yl]benzenesulfonamide hydrochloride]",–,16.4,1380
"COc1ccc(S(=O)(=O)N(c2c(Cc3ccccc3Cl)cccc2OC)[C@H]2CCNC2)cc1OC [Compound 11, N-[2-(2-chlorobenzyl)-6-methoxyphenyl]-3,4-dimethoxy-N-[(3S)-pyrrolidin-3-yl]benzenesulfonamide hydrochloride]",7.2,–,–
"COc1ccc(S(=O)(=O)N(c2c(Cc3c(F)cccc3F)cccc2OC)[C@H]2CCC[C@@H]2N)cc1OC [Compound 14, N-[(1S,2S)-2-aminocyclopentyl]-N-[2-(2,6-difluorobenzyl)-6-methoxyphenyl]-3,4-dimethoxy-benzenesulfonamide hydrochloride]",10,–,–
"COc1ccc(S(=O)(=O)N(c2c(Cc3c(F)cccc3F)cc(Cl)cc2OC)[C@H]2CCNC2)cc1OC [Compound 18, N-[2-(2,6-difluorobenzyl)-4-chloro-6-methoxyphenyl]-3,4-dimethoxy-N-[(3S)-pyrrolidin-3-yl]benzenesulfonamide hydrochloride]",12,–,–
